# Data taken from patent US20240245627A1, “ALKENE QUINONE COMPOUNDS AND METHODS OF USE” (University of Pittsburgh - Of the Commonwealth System of …, priority 2021, published 2024).
# Assays:
# Recombinant CYB5R3 = biological target: T1, Recombinant CYB5R3 (Homo sapiens, UniProt P00387); assay: Reduction of oxidized myoglobin by recombinant CYB5R3 (NADH-initiated, absorbance); format: biochemical
# T1 sequence (P00387 1-301): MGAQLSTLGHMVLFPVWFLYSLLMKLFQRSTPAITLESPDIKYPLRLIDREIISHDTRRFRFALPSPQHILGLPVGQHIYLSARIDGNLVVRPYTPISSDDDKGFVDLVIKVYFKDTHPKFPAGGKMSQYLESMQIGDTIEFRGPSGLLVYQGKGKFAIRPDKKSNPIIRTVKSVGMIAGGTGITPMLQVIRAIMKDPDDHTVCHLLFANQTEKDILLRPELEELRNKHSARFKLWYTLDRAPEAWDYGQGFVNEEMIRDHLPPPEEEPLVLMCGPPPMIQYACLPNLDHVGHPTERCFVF
# Experimental: FIGS. 2a-2c. Reduction of oxidized myoglobin by CYB5R3 is not affected by (FIG. 2a) oleic acid or (FIG. 2b) Q-OA (CoQ-linked oleic acid). Q-NA enhanced (FIG. 2c) CYB5R3 reduction of myoglobin. Error bars are S.E.M. and n=3.
# Recombinant CYB5R3 was incubated with nitro-oleic acid, CoQ-linked oleic acid or Q-NA along with oxidized myoglobin. NADH stimulation initiated the reaction and absorbance changes were monitored which is indicative of myoglobin reduction. Q-NA increased myoglobin heme reduction whereas the other compounds had no effect (FIG. 2). Q-NA alone had no effect on myoglobin reduction.
# [1] = system: RPS/RPL gene expression in human aortic endothelial cells; assay: RPS/RPL gene transcription in human aortic endothelial cells (RNA sequencing); format: cell-based; conditions: 5 μM, 6 hours
# Experimental: FIG. 9. NO2—OA and Q-NA stimulate divergent effects of RSP/RPL gene transcription in aortic endothelial cells.
# Human aortic endothelial cells were stimulated with vehicle (dimethylsulfoxide, (DMSO)), 5 μM of NO2—OA, or 5 μM Q-NA. Following 6 hours of stimulation, cells were lysed and RNA sequencing was performed.
Molecule,myoglobin heme reduction by CYB5R3 (Recombinant CYB5R3),RPS/RPL gene expression compared to Q-NA treatment [1]
"CCCCCCCC/C=C\CCCCCCCC(=O)O [oleic acid, octadece-9-noic acid]",not affected,
"9-, 10-nitro octadece-9-noic acid [NO2—OA]",no effect,opposing effects
